IC50 data for twelve molecules are collected here from patent US7816353B2 (Exelixis, Inc., priority 2003, dated 2010).

A value given as a limit tells only on which side of the number the result lay.

What is called IC50 is the concentration needed to halve the response being measured.

This assay deals with T1, p70S6K (Homo sapiens, UniProt P23443, T412E).
T1 construct: human p70S6 kinase domain residues 1-421, containing a T412E mutation; made in house
T1 sequence (P23443 1-421 T412E): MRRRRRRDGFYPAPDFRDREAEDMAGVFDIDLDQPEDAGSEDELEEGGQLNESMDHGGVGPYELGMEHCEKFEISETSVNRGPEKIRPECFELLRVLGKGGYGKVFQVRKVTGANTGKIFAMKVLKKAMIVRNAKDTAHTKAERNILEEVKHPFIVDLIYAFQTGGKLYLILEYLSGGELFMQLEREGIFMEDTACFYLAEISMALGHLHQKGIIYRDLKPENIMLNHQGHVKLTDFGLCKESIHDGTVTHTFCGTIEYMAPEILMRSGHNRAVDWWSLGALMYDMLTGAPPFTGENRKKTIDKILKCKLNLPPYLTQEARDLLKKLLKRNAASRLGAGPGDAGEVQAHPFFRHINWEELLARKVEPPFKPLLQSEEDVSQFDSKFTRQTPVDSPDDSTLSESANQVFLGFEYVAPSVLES
Description: p70S6 Kinase Assay (Luciferase-Coupled Chemiluminescent Kinase assay, LCCA). Type of assay: biochemical. The conditions noted are these: human p70S6 kinase domain residues 1-421, T412E; 5 μM ATP; read-out: p70S6K IC50. An outline of the steps: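 Luciferase-coupled chemiluminescence measured percent ATP remaining after the 2 h kinase reaction at ambient temperature, with ATP near the kinase's KM. Ten inhibitor concentrations were tested. IC50 was obtained from a Hill-equation fit.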
As to `CCOc1nc(N)nc(N[C@@H](Cc2ccc(O)cc2)C(=O)Nc2cccc(C(F)(F)F)c2)c1C#N` [Example 154, Nalpha-[2-amino-5-cyano-6-(ethyloxy)pyrimidin-4-yl]-N-[3-(trifluoromethyl)phenyl]-L-tyrosinamide], the IC50 was over 2 µM. The value for `CSc1nc(N)nc(NCCC[C@H](N)C(=O)Nc2cccc(C(F)(F)F)c2)c1C#N` [Example 155, N~5~-[2-amino-5-cyano-6-(methylthio)pyrimidin-4-yl]-N-[3-(trifluoromethyl)phenyl]-L-ornithinamide] was over 2 µM; that for `CCOc1nc(N)nc(N[C@@H](CCCCN(C)C)C(=O)Nc2cccc(C(F)(F)F)c2)c1C#N` [Example 156, N~2~-[2-amino-5-cyano-6-(ethyloxy)pyrimidin-4-yl]-N~6~,N~6~-dimethyl-N-[3-(trifluoromethyl)phenyl]-L-lysinamide] was over 2 µM; that for `CCOc1nc(N)nc(N[C@@H](C)C(=O)Nc2cc(C(=O)N3CCN(C)CC3)cc(C(F)(F)F)c2)c1C#N` [Example 157, N~2~-[2-amino-5-cyano-6-(ethyloxy)pyrimidin-4-yl]-N-[3-[(4-methylpiperazin-1-yl)carbonyl]-5-(trifluoromethyl)phenyl]-L-alaninamide] was over 2 µM. In the case of `CCOc1nc(N)nc(N[C@@H](C)C(=O)Nc2cc(C(=O)NCCCN3CCCC3)cc(C(F)(F)F)c2)c1C#N` [Example 158, 3-({N-[2-amino-5-cyano-6-(ethyloxy)pyrimidin-4-yl]-L-alanyl}amino)-N-(3-pyrrolidin-1-ylpropyl)-5-(trifluoromethyl)benzamide] it was over 2 µM; in that of `CCOc1nc(N)nc(N[C@@H](C)C(=O)Nc2cc(C(=O)NCCN3CCOCC3)cc(C(F)(F)F)c2)c1C#N` [Example 159, 3-({N-[2-amino-5-cyano-6-(ethyloxy)pyrimidin-4-yl]-L-alanyl}amino)-N-(2-morpholin-4-ylethyl)-5-(trifluoromethyl)benzamide], over 2 µM; in that of `CCOc1nc(N)nc(N[C@@H](C)C(=O)Nc2cc(C(=O)NCCCN3CCN(C)CC3)cc(C(F)(F)F)c2)c1C#N` [Example 161], over 2 µM. In the case of `CCOc1nc(N)nc(N(C)[C@@H](CCCCNC(=O)OCc2ccccc2)C(=O)Nc2cccc(C(F)(F)F)c2)c1C#N` [Example 162, N~2~-[2-amino-5-cyano-6-(ethyloxy)pyrimidin-4-yl]-N~2~-methyl-N~6~-{[(phenylmethyl)oxy]carbonyl}-N-[3-(trifluoromethyl)phenyl]-L-lysinamide] it was over 2 µM; in that of `CCOc1nc(N)nc(N[C@@H](COC(C)=O)C(=O)Nc2cccc(C(F)(F)F)c2)c1C#N` [Example 164, (2S)-2-{[2-amino-5-cyano-6-(ethyloxy)pyrimidin-4-yl]amino}-3-oxo-3-{[3-(trifluoromethyl)phenyl]amino}propyl acetate], over 2 µM; in that of `CCOc1nc(N)nc(N[C@@H](CCC(=O)OCc2ccccc2)C(=O)Nc2cccc(C(F)(F)F)c2)c1C#N` [Example 165, phenylmethyl N~2~-[2-amino-5-cyano-6-(ethyloxy)pyrimidin-4-yl]-N-[3-(trifluoromethyl)phenyl]-L-apha-glutaminate], over 2 µM. Consider `CSc1nc(NC(C)=O)nc(N(C(C)=O)[C@@H](CCCNC(C)=O)C(=O)Nc2cccc(C(F)(F)F)c2)c1C#N` [Example 166, N~2~,N~5~-diacetyl-N~2~-[2-(acetylamino)-5-cyano-6-(methylthio)pyrimidin-4-yl]-N-[3-(trifluoromethyl)phenyl]-L-ornithinamide], for which the IC50 was over 2 µM. The value for `CCOc1nc(N)nc(N[C@@H](CCCN2CCOCC2)C(=O)Nc2cccc(C(F)(F)F)c2)c1C#N` [Example 168, N~2~-[2-amino-5-cyano-6-(ethyloxy)pyrimidin-4-yl]-5-morpholin-4-yl-N-[3-(trifluoromethyl)phenyl]-L-norvalinamide] was over 2 µM.
